Measurements: BindingDB's records for doi:10.1016/j.ejmech.2017.10.076 (Wayne State University, 2018)

Columns and labels:
[1] = biological target: T1, Histone deacetylase 8 (Homo sapiens, UniProt Q9BY41); test: Inhibition of human recombinant full-length C-terminal His-tagged HDAC8 expressed in baculovirus infected Sf9 insect cell preincubated for 15 mins followed by HDAC-Glo substrate addition measured after 30 mins by fluorimetric method
T1 sequence (Q9BY41 whole entry): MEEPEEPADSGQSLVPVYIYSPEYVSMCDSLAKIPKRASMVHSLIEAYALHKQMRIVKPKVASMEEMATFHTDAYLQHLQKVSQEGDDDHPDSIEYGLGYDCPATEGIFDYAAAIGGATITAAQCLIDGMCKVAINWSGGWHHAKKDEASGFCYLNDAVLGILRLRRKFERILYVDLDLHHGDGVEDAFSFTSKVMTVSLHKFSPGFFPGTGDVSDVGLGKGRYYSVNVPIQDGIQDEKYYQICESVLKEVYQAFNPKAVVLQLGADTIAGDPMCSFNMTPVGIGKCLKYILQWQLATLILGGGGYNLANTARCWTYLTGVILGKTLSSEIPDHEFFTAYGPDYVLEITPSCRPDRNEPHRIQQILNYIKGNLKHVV

[2] = biological target: T2, Histone deacetylase 6 (Homo sapiens, UniProt Q9UBN7); test: Inhibition of HDAC6 in human HeLa-S3 cell lysates preincubated for 15 mins followed by HDAC-Glo substrate addition measured after 30 to 40 mins by fluorimetric method
T2 sequence (Q9UBN7 whole entry): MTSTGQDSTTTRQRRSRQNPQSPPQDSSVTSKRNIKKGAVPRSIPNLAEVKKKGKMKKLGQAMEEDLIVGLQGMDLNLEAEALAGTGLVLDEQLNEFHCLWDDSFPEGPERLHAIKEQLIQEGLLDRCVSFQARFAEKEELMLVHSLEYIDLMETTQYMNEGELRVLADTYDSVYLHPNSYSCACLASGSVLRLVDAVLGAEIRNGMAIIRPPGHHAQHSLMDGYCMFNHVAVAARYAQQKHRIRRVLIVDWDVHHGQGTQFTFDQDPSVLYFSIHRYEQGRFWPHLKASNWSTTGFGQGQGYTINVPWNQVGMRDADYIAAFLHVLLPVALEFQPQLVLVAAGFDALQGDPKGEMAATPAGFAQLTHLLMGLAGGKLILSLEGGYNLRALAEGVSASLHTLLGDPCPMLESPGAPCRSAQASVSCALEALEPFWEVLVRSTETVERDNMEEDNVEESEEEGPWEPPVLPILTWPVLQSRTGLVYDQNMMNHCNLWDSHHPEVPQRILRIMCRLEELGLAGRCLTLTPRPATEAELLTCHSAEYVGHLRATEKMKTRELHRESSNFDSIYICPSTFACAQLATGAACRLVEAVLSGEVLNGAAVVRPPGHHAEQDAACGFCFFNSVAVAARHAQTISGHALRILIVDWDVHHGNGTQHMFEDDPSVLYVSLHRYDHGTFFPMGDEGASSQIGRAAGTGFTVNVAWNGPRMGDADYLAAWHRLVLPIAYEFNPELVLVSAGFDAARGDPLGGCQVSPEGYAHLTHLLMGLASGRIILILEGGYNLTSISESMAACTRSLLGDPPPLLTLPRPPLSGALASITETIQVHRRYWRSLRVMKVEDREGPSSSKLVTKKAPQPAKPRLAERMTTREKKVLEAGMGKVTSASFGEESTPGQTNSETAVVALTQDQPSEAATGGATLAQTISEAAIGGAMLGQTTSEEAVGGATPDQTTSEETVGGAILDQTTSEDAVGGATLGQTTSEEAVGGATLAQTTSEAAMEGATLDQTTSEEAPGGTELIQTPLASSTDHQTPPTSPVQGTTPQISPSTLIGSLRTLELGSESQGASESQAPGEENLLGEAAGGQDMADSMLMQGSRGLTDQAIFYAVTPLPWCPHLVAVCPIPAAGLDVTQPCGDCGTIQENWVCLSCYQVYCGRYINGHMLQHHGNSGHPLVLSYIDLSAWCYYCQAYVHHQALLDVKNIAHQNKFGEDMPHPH

[3] = biological target: Histone deacetylase 3 (Homo sapiens, UniProt O15379); test: Inhibition of HDAC3 in human HeLa-S3 cell lysates preincubated for 15 mins followed by HDAC-Glo substrate addition measured after 30 to 40 mins by fluorimetric method
[4] = biological target: Histone deacetylase 1 (Homo sapiens, UniProt Q13547); test: Inhibition of HDAC1 in human HeLa-S3 cell lysates preincubated for 15 mins followed by HDAC-Glo substrate addition measured after 30 to 40 mins by fluorimetric method
Histone deacetylase 1, sequence (Q13547 whole entry): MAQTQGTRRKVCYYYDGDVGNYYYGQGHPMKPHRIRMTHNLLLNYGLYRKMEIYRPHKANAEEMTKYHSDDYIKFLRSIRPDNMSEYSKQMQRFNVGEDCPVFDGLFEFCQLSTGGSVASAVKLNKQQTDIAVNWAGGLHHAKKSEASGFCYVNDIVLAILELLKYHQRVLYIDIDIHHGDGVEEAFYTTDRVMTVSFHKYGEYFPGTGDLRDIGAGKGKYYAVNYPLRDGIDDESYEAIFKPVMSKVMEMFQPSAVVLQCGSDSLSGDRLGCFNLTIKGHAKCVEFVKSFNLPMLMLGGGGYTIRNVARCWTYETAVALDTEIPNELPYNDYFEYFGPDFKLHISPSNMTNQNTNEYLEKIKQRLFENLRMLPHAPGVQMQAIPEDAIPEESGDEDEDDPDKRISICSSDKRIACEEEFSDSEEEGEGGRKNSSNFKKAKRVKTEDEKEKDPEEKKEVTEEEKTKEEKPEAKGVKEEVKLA

Histone deacetylase 3, sequence (O15379 whole entry): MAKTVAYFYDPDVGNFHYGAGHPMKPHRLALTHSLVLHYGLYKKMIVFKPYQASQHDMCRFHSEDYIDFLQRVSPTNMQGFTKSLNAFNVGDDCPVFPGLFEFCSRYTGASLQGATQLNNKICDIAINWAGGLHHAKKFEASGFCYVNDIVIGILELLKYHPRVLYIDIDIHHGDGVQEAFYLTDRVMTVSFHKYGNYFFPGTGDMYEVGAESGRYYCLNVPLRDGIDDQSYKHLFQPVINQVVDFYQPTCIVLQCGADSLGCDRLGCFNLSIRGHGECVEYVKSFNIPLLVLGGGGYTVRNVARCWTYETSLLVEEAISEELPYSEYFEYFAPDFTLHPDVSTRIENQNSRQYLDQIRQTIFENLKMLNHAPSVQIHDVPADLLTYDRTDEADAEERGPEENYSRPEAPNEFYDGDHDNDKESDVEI

O=C(CCC(CCCC(=O)Nc1ccccc1)c1ccccc1)NO (centres undefined)
IC50 [1]: 0.29 µM
IC50 [2]: 0.11 µM
IC50 [3]: 23 µM
IC50 [4]: 11 µM
